Earlier results on one substance are cited in patent US20110152177A1, “Functional Feed Composition” (priority 2008, published 2011).

The subject of one data set is Vibrio anguillarium. The settings on record: lower and higher doses reported to increase mortalities.
The test system of the next data set is V. anguillarum. The settings on record: oral administration of PG at 0.2 and 2 mg/kg diet.

For peptidoglycan, the “optimal dose of peptidoglycan in diet” value in the data set on Vibrio anguillarium was 4 g kg^−1 diet. The “disease resistance” value in the data set with V. anguillarum is reported as “enhances the disease resistance”.
